Experimental data reported in PMC6155239, “Targeting PFKFB3 radiosensitizes cancer cells and suppresses homologous recombination” (Nature Communications, 2018).

Columns and labels:
[1] = target: T1, DCAMKL1 (Homo sapiens, UniProt O15075); assay: KINOMEscan; type: binding; conditions: 2000 nM; read-out: Percent Control
T1 construct: purchased DiscoverX (Eurofins) KINOMEscan / scanEDGE, inferred from the naming style

[2] = target: T2, CDK11 (Homo sapiens, UniProt Q9BWU1); assay: KINOMEscan; type: binding; conditions: 2000 nM; read-out: Percent Control
T2 construct: purchased DiscoverX (Eurofins) KINOMEscan / scanEDGE, inferred from the naming style
T2 sequence (Q9BWU1 whole entry): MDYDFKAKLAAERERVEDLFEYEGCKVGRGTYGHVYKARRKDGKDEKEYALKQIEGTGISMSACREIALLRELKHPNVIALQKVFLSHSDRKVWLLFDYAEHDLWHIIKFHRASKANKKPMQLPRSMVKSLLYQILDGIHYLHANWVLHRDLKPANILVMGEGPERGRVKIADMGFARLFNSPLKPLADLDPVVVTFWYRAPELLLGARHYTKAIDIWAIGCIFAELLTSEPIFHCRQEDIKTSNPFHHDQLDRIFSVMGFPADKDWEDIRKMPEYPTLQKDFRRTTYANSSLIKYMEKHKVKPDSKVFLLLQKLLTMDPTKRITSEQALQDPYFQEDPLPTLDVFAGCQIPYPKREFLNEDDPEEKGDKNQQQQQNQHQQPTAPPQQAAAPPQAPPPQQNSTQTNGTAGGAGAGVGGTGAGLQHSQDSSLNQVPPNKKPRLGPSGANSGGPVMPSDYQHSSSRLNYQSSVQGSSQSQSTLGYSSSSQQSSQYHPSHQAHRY

[3] = tested on: peripheral blood mononuclear cells (PBMCs); assay: Viability of PBMCs; type: cell-based
[4] = tested on: U2OS cells; assay: DDR signaling, western blot / RPA32 intensity; type: cell-based
Protocol: Cells were lysed on ice using the NP-40 lysis buffer (50 mM Tris–HCl pH 8.0, 150 mM NaCl, 1% NP-40) supplemented with protease and phosphatase inhibitors (Roche). Protein lysates were quantified using the Pierce BCA Protein Assay Kit (ThermoFisher Scientific), equal amounts of protein were heated to 70 °C in NuPAGE LDS Sample Buffer (ThermoFisher Scientific) and loaded on Mini-PROTEAN® precast gels (Bio-Rad) and run at 120 V. Transfer to nitrocellulose membrane (Bio-Rad) was done using Trans-Blot Turbo Transfer System (Bio-Rad). Membranes were blocked for 1 h at RT in blocking buffer (5% BSA, 0.1% Tween-20 in PBS, or 1:1 Li-Cor Blocking Buffer/TBS + 0.05% Tween-20 (TBS-T)), incubated with primary antibodies overnight at 4 °C and then incubated 1 h at RT with secondary antibodies diluted at 1:10,000 in 1:1 Li-Cor blocking buffer/TBS-T. Bands were visualized with an Odyssey Fc Imager and analyzed with ImageJ or with Image Studio Software (Li-Cor Biosciences). Uncropped western blots are shown in Supplementary Figure 10, 11, 12, 13, 14, 15, 16.

T1 sequence (O15075 whole entry): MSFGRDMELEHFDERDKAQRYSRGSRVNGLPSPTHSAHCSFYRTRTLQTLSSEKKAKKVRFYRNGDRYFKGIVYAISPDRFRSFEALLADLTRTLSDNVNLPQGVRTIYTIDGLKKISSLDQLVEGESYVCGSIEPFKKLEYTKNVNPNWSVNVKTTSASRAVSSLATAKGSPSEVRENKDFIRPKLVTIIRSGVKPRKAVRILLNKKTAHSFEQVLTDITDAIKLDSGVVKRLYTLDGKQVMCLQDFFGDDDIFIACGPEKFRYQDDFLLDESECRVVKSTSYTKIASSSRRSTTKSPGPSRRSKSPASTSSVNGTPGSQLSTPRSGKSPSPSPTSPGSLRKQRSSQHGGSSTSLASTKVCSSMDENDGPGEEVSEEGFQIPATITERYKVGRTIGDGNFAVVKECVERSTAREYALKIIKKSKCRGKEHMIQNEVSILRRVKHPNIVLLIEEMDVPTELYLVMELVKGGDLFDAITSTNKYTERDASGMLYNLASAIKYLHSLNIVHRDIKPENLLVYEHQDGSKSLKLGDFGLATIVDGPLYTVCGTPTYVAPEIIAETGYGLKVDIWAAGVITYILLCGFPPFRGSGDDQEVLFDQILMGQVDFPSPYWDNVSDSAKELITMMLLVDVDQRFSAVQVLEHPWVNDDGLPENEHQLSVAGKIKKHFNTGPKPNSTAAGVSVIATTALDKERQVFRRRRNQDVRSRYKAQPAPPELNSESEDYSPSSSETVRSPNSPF

O=C(O)c1ccc(NS(=O)(=O)c2cccc(-c3cc(F)ccc3O)c2)cc1O [KAN0438241, 4-{[(5′-Fluoro-2′-hydroxybiphenyl-3-yl)sulfonyl]amino}-2-hydroxybenzoic acid]
remaining binding at 2 µM [1]: 95%
remaining binding at 2 µM [2]: 96%

O=C(OCCO)c1ccc(NS(=O)(=O)c2cccc(-c3cc(F)ccc3O)c2)cc1O [KAN0438757, 2-Hydroxyethyl-4-{[(5′-fluoro-2′-hydroxybiphenyl-3-yl)sulfonyl]amino}-2-hydroxybenzoate]
effect on viability of PBMCs [3]: not affected
IR-induced phosphorylation of ATM, H2AX, or KAP-1 (in words) ([4]; 10 μM 24 h): did not affect
induction of RPA-coated ssDNA, p53, phosphorylation of ATR, ATM, Chk1, H2AX (in words) ([4]; no IR): did not induce
